In this assay the target is T1, IgE-Tb / soluble IgE receptor FcεRIα (Y131A mutation) (Homo sapiens, UniProt P01854, C105A/N146Q/N252Q).
T1 construct: 86 nmoles of IgE-Fc(N265Q, N371Q) (Young et al., 1995)
T1 sequence (P01854 104-428 isoform P01854-1 C105A/N146Q/N252Q): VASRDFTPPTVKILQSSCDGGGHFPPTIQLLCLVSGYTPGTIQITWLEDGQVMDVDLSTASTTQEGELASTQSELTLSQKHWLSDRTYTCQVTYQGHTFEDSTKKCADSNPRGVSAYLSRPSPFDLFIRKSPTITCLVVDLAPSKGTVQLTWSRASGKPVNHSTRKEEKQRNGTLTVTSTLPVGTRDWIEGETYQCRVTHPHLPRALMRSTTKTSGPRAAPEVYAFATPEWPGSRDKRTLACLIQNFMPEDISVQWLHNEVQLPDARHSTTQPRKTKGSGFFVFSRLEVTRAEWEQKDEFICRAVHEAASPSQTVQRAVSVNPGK
Put plainly: in vitro FRET assay: binding of IgE-Tb to receptor FcεRIα-Y131A-AF488 and inhibition by compounds. The settings on record: 5 nM IgE-Tb, 25 nM FcεRIα-Y131A-AF488, 2 hours at room temperature; read-out: FRET IC50 range. The protocol: 86 nmoles of IgE-Fc(N265Q, N371Q) (Young et al., 1995) at 172 μM in 100 mM NaHCO3, pH 9.5 was added to 1 mg of LanthaScreen™ Amine Reactive Tb Chelate (ThermoFisher catalogue number PV3583) and incubated for 16 hours at 20° C. The material was then buffer exchanged into Phosphate Buffered Saline (being, 137 mM NaCl, 2.7 mM KCl, 10 mM Na2HPO4, 1.8 mM K2HPO4, pH 7.4) and the material quantified and the degree of Tb conjugation determined by measuring the absorption at 280 nm and 343 nm.
The integrity of the conjugated material was determined by analytical size exclusion chromatography on a S200 HR 10×300 column (GE Healthcare). Typical conjugation ratios were 4:1 Tb:IgE-Fc.
400 nmoles FcεR1α(Y131A mutant) (Cook et al., 1997) at 400 μM in 100 mM NaOAc pH 5.5 was reacted with 1 mM final concentration sodium periodate (in 100 mM NaOAc, pH 5.5) for 60 minutes at 22° C. Oxidation was quenched with the addition of 40 μL of ethanediol and incubation for 60 minutes at 22° C. The protein was buffer exchanged in to conjugation buffer (50 mM NaHCO3, 150 mM NaCl, pH 9.5) and concentrated to 750 μM.
175 nmoles of protein was added to 1 mg of Alexa Fluor™ 488 hydrazide (Invitrogen) and incubated for 16 hours at 22° C. Sodium cyanoborohydride (at 100 mM in conjugation buffer) was added to a final concentration of 1 mM and incubated for 60 minutes on ice. The protein was buffer exchanged into Phosphate Buffered Saline (being, 137 mM NaCl, 2.7 mM KCl, 10 mM Na2HPO4, 1.8 mM K2HPO4, pH 7.4) and the material quantified and the degree of Alexa Fluor™ 488 conjugation determined by measuring the absorption at 280 nm and 495 nm.
The integrity of the conjugated material was determined by analytical size exclusion chromatography on a S200 HR 10×300 column (GE Healthcare). Typical conjugation ratios were 2:1 Alexa Fluor™488: sFcεR1α
The aim was to measure binding of IgE-Tb to receptor, and the inhibition thereof by compounds, using an in vitro Fluorescence Resonance Energy Transfer (FRET) Assay.
FRET reagents used were IgE labelled with Terbium (FRET donor), and soluble IgE receptor FcεRIα with a Y131A mutation, labelled with Alexa Fluor™ 488 (FRET acceptor). Unlabelled FcεRIα was also used to generate a background control. The assay buffer consisted of 20 mM Tris pH7.2, 150 mM NaCl, and 0.002% Tween, 1% DMSO.
The assay was conducted according to the following: Each assay reaction was conducted in a volume of 25 μl in a 384-well half-volume plate. 10 point compound serial dilutions (3-fold) were generated in DMSO at a concentration of ×50 that of the final assay concentration (FAC). Compound solutions were then prepared by IgE-Tb diluting 10-fold in assay buffer. For the assay, 5 μl of diluted compound was added to 10 μl of, followed by addition of 10 μl FcεRIα-Y131A-AF488. FRET reagents FACs were 5 nM IgE-Tb, 25 nM FcεRIα-Y131A-AF488. Usually the top FAC of compound in the assay was 10 μM. The final DMSO concentration was 2%. The minimum signal (MIN) was measured by adding 5 μl unlabelled FcεRIα at 1 μM (FAC=200 nM) to the FRET reagents. The maximum FRET signal (MAX) was measured in wells containing FRET reagents but no compound.
The assay was incubated for 2 hours at room temperature, protected from light and evaporation, and with gentle agitation.
Measurement of FRET for each well was carried out by exciting at 330 nm and measuring emission at 495/520 nm using an Envision plate reader (Perkin Elmer). FRET ratio was calculated as follows: Emission at 520/Emission at 495×1000.
The FRET ratio was used for the data analysis.
Z′ was calculated as follows (σ=standard deviation and μ=mean): 1−((3×σ^MAX)+(3×σMIN))/(μMAX−μMIN)
Z′ above 0.5 was considered a good assay.
Background signal (MIN) was subtracted from all wells. Using the background subtracted values, the percent inhibition by compound in each test-well was calculated as follows: 100−Test-well FRET ratio/MAX FRET ratio×100.
Percent inhibition was plotted against compound concentration. […]
Consider `Cc1noc(-c2cncc(NC3CCCc4c3cc(S(=O)(=O)NCC(C)(C)F)c3cc(C5CC5)ncc43)c2)n1` (stereo not drawn) [Example 10, 3-cyclopropyl-N-(2-fluoro-2-methylpropyl)-7-[[5-(3-methyl-1,2,4-oxadiazol-5-yl)pyridin-3-yl]amino]-7,8,9,10-tetrahydrobenzo[h]isoquinoline-5-sulfonamide], for which the concentration for half-maximal inhibition (IC50) was 0.05 to 0.1 µM.

Turning to `CCNC(=O)NC1CCCc2cc(S(=O)(=O)NCC(C)C)c3cc(C4CC4)ncc3c21` (stereo not drawn) [Example 3, 1-[3-cyclopropyl-5-(2-methylpropylsulfamoyl)-7,8,9,10-tetrahydrobenzo[h]isoquinolin-10-yl]-3-ethylurea], the concentration for half-maximal inhibition (IC50) lay within 0.1 to 1 µM.

As to `CC(C)CNS(=O)(=O)c1cc2c(c3cnc(C4CC4)cc13)CCCC2NS(C)(=O)=O` (stereo not drawn) [Example 4, 3-cyclopropyl-7-(methanesulfonamido)-N-(2-methylpropyl)-7,8,9,10-tetrahydrobenzo[h]isoquinoline-5-sulfonamide], the half-maximal inhibitory concentration (IC50) was 0.1 to 1 µM.

On to `Cc1cc(NC(=O)NC2CCCc3c2cc(S(=O)(=O)NCC(C)(C)F)c2cc(C4CC4)ncc32)n(C)n1` (stereo not drawn) [Example 11, 1-[3-cyclopropyl-5-[(2-fluoro-2-methylpropyl)sulfamoyl]-7,8,9,10-tetrahydrobenzo[h]isoquinolin-7-yl]-3-(2,5-dimethylpyrazol-3-yl) urea], for which the 50% inhibitory concentration (IC50) is 0.1 to 1 µM.

For `Cc1cc(Nc2nncn2C2CCCc3c2cc(S(=O)(=O)NCC(C)(C)F)c2cc(C4CC4)ncc32)n(C)n1` (stereo not drawn) [Example 7, 3-cyclopropyl-7-[3-[(2,5-dimethylpyrazol-3-yl)amino]-1,2,4-triazol-4-yl]-N-(2-fluoro-2-methylpropyl)-7,8,9,10-tetrahydrobenzo[h]isoquinoline-5-sulfonamide], the 50% inhibitory concentration (IC50) was in the range of 0.1 to 1 µM.

Consider `Cn1nnc(-c2ccc(NC3CCCc4c3cc(S(=O)(=O)NCC(C)(C)F)c3cc(C5CC5)ncc43)cn2)n1` (stereo not drawn) [Example 6], for which the IC50 lay in the range of 0.01 to 0.05 µM.

For `CCOC(=O)c1ncn(C2CCCc3c2cc(S(=O)(=O)NCC(C)(C)F)c2cc(C4CC4)ncc32)c1N` (stereo not drawn) [Example 9, ethyl 5-amino-1-[3-cyclopropyl-5-[(2-fluoro-2-methylpropyl)sulfamoyl]-7,8,9,10-tetrahydrobenzo[h]isoquinolin-7-yl]imidazole-4-carboxylate], the concentration for half-maximal inhibition (IC50) was in the range of 0.1 to 1 µM.

For the compound `CC(C)CNS(=O)(=O)c1cc2c(c3cnc(C4CC4)cc13)CCCC2` [Example 1, 3-cyclopropyl-N-(2-methylpropyl)-7,8,9,10-tetrahydrobenzo[h]isoquinoline-5-sulfonamide], the IC50 lay within 0.1 to 1 µM.

For `CCOC(=O)c1cn(C2CCCc3c2cc(S(=O)(=O)NCC(C)(C)F)c2cc(C4CC4)ncc32)cn1` (stereo not drawn) [Example 12, ethyl 1-[3-cyclopropyl-5[(2-fluoro-2-methylpropyl)sulfamoyl]-7,8,9,10-tetrahydrobenzo[h]isoquinolin-7-yl]imidazole-4-carboxylate], the IC50 fell in the range of 0.1 to 1 µM.

Consider `CC(C)CNS(=O)(=O)c1cc2c(c3cnc(C4CC4)cc13)C(NS(C)(=O)=O)CCC2` (stereo not drawn) [Example 5, 3-cyclopropyl-10-(methanesulfonamido)-N-(2-methylpropyl)-7,8,9,10-tetrahydrobenzol[h]isoquinoline-5-sulfonamide], for which the IC50 fell in the range of 1 to 5 µM.

As for `Cn1nnc(-c2ccc(NC3CCCc4cc(S(=O)(=O)NCC(C)(C)F)c5cc(C6CC6)ncc5c43)cn2)n1` (stereo not drawn) [Example 8, 3-cyclopropyl-N-(2-fluoro-2-methylpropyl)-10-[[6-(2-methyltetrazol-5-yl)pyridin-3-yl]amino]-7,8,9,10-tetrahydrobenzo[h]isoquinoline-5-sulfonamide], the IC50 fell in the range of 0.1 to 1 µM.

Regarding `CCNC(=O)NC1CCCc2c1cc(S(=O)(=O)NCC(C)C)c1cc(C3CC3)ncc21` (stereo not drawn) [Example 2, 1-[3-cyclopropyl-5-(2-methylpropylsulfamoyl)-7,8,9,10-tetrahydrobenzo[h]isoquinolin-7-yl]-3-ethylurea], the half-inhibitory concentration (IC50) was in the range of 0.05 to 0.1 µM.

The IC50 is the concentration that gives 50% inhibition.
